Results on 10 molecules are retold here after paper PMC11549390, “Activity, structure, and diversity of Type II proline-rich antimicrobial peptides from insects” (EMBO Reports, 2024).

As usually defined, the MIC is the lowest concentration found to suppress growth. Low values mean greater potency, high ones weaker potency.

Where two headings read alike, the source gives them in different places. No end group written: not given here.

For experiment [1], the system named is E. coli strain BL21 cells transformed with the pRXG(UGA) plasmid. In words: Stop codon readthrough assay (RFP-UGA-GFP reporter, drop-diffusion). Format: cell-based, Escherichia coli. The settings on record: subinhibitory concentrations, M9 agar, 2 µL of 2 mM peptide, 37 °C 16 h, three independent experiments. As for the experimental part:
Figure 4 Newly identified PrAMPs cause stop codon readthrough in bacterial cells. Top: In-frame fused genes encoding the reporter proteins RFP and GFP in the pRXG plasmid (Monk et al, [2017]) are separated by an UGA stop codon. […] Api and the modified Api137 (Berthold et al, [2013]) were spotted for comparison. […] Shown are representative plates from three independent experiments.
Stop codon readthrough activity of PrAMPs was determined as previously described (Mangano et al, [2023]). Briefly, E. coli strain BL21 cells transformed with the pRXG(UGA) plasmid (Monk et al, [2017]) were plated as described above for the drop-diffusion test, except that the bacterial lawn was formed on M9 medium/agar plates supplemented with 50 µg/ml of Kan and 0.2% glucose. Peptide solutions (2 µL of 2 mM stocks) were applied. The plates were incubated at 37 °C for 16 h and imaged in Cy2 (GFP) or Cy3 (RFP) channels using the BioRad ChemiDoc Touch imaging system. The images were processed using Image Lab software (BioRad).

In a further experiment the test system is K. pneumoniae AR-0112. The class given is cell-based, Klebsiella pneumoniae. As for the experimental part:
(§1) The minimal inhibitory concentration (MIC) test for the E. coli laboratory strain BL21 and the K. pneumoniae multi-drug-resistant clinical strain AR-0112 (CDC and FDA Antibiotic Resistance Isolate Bank) was performed using the broth microdilution method, adapted from a previously described procedure (Wiegand et al, [2008]). The MIC tests were conducted either in 33% Tryptic Soy Broth (TSB) (Berthold et al, [2013]), or in RPMI/Serum (prepared by combining Roswell Park Memorial Institute medium 1640, Mueller Hinton Broth, and fetal bovine serum in the proportion 100:5:20, v/v/v) (Belanger et al, [2020]).

The subject of the next experiment is E. coli BL21. The class given is cell-based, Escherichia coli. The procedure:
as §1

Take `O=C(N[C@H](CO)[C@H](O)c1ccc([N+](=O)[O-])cc1)C(Cl)Cl` [chloramphenicol]: the “Induction of stop codon readthrough (GFP halo)” value in experiment [1] is recorded as “does not induce stop codon readthrough”.
With AHKPVYVPPPRPPHPRL [Nme2], in the experiment on K. pneumoniae AR-0112 (AR-0112), the MIC stood at 2 µM.
For ALNRPVYVPPPRPPHPRL [Mge1], the MIC in the experiment with K. pneumoniae AR-0112 (AR-0112) stood at 1 µM. Compared with the last molecule, the MIC is about 2-fold lower.
For GKPNKPRPAPIKPRPPHPRL [Pdi2], the MIC against E. coli BL21 (BL21) is 0.25 µM. This counts as sub-micromolar.
As for GNRPNIPTYIPRPRPPHPRL [Fva1], the MIC against E. coli BL21 (E. coli BL21, 33% TSB, broth microdilution, performed in triplicate) came to 0.125 µM; against E. coli BL21 (E. coli BL21, RPMI/Serum (RPMI 1640:Mueller Hinton Broth:fetal bovine serum 100:5:20), broth microdilution, performed in triplicate), 0.25 µM; in the experiment on K. pneumoniae AR-0112 (K. pneumoniae AR-0112 (multi-drug-resistant clinical strain), 33% TSB, broth microdilution, performed in triplicate) it was 1 µM; in the experiment with K. pneumoniae AR-0112 (K. pneumoniae AR-0112, RPMI/Serum (RPMI 1640:Mueller Hinton Broth:fetal bovine serum 100:5:20), broth microdilution, performed in triplicate) it was 16 µM.
GSKPVRPPPPIRPRPPHPRL [Btr1] displayed an MIC in the experiment on E. coli BL21 (BL21) of 0.25 µM.
The same measure, in the same setting: the same measure for GSRLMYLPPPPCSPYLHF [Baf1]: over 64 µM.
NRPTYVPPPRPPHPRL [Ssp1] returned a minimum inhibitory concentration (MIC) against K. pneumoniae AR-0112 (AR-0112) of 2 µM. This counts as single-digit micromolar.
For SNKPRPQQVPPRPPHPRL [Vma1], the MIC with K. pneumoniae AR-0112 (AR-0112) came to 2 µM.
In the experiment on E. coli BL21 (BL21), SNRPVYIPPPRSPHPRL [Bvo1] returned an MIC of over 64 µM.
